From US20130116231A1, “TYROSINE KINASE INHIBITORS” (Merck Sharp & Dohme Corp., priority 2010, published 2013) come the findings set out here.

Some results are limits rather than exact numbers.

T1 sequence (P08581 956-1390 limits assumed): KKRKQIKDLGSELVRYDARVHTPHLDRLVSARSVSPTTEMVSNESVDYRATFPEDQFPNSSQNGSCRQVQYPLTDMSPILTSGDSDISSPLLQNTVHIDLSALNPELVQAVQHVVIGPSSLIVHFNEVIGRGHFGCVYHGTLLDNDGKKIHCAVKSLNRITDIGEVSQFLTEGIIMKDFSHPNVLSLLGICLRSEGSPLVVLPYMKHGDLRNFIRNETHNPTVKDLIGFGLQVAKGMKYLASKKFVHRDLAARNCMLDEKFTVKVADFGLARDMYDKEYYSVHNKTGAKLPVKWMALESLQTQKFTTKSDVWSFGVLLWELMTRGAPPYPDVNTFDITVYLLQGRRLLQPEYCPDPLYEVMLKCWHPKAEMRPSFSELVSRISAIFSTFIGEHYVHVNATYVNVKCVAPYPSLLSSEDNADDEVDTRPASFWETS

The experiment has as its target T1, human c-Met (Homo sapiens, UniProt P08581).
T1 construct: Recombinant GST-tagged cytosolic domains of human c-Met; 6xHis; made in house; host or cells: Sf9 or Sf21 insect cells (baculovirus)
Briefly: in vitro kinase assay (homogeneous time-resolved tyrosine kinase assay, METKA). Format: biochemical. The settings on record: recombinant GST-tagged c-Met cytosolic domain, HTRF, 50 μM MgATP; read-out: Biological Activity (METKA IC50) Activity Code. The gist of the method:
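HTRF assay with GST-tagged cytosolic c-Met domain (0.2 nM), 0.5 μM biotinylated peptide, 50 μM MgATP, pH 7.4, 5% DMSO, 80 min at room temperature; Eu-anti-pTyr/SA-APC detection, IC50 by 4-parameter fit. Other kinases identical except enzyme level: mouse c-Met 0.2, Ron 2.5, KDR 8, IGFR 0.24, EGFR 0.24, FGFR 0.14, Mer 16, TrkA 8, Tie2 8 nM.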
For orientation: In TR-FRET formats the signal depends on donor and acceptor labels being close together.
Regarding `N#Cc1cccc(-n2ccc(=O)c(COc3ccc4ncccc4c3)n2)c1` [Example 3, 3-{4-oxo-3-[(quinolin-6-yloxy)methyl]pyridazin-1(4H)-yl}benzonitrile], the IC50 is less than 100 nM.
On to `Cn1cc(-n2ccc(=O)c(COc3ccc4ncc(-c5cccnc5)cc4c3)n2)cn1` [Example 74, 1-(1-Methyl-1H-pyrazol-4-yl)-3-{[(3-pyridin-3-ylquinolin-6-yl)oxy]methyl}pyridazin-4(1H)-one], for which the concentration for half-maximal inhibition (IC50) is less than 100 nM.
For the molecule `CC(Oc1nn(-c2cnn(C)c2)ccc1=O)c1ccc2ncccc2c1` (stereo not drawn) [Example 130, 1-(1-methyl-1H-pyrazol-4-yl)-3-(1-quinolin-6-ylethoxy)pyridazin-4(1H)-one], the concentration for half-maximal inhibition (IC50) was 100 to 1000 nM.
For `CCn1cc(-n2ccc(=O)c(COc3ccc4ncc(-c5ccc(OC)nc5)cc4c3)n2)cn1` [Example 82, 1-(1-ethyl-1H-pyrazol-4-yl)-3-({[3-(6-methoxypyridin-3-yl)quinolin-6-yl]oxy}methyl)pyridazin-4(1H)-one] the value was less than 100 nM; for `N#Cc1cc(Cl)cc(-n2ccc(=O)c(COc3ccc4ncccc4c3)n2)c1` [Example 6, 3-chloro-5-{4-oxo-3-[(quinolin-6-yloxy)methyl]pyridazin-1(4H)-yl}benzonitrile], less than 100 nM.
The value for `NC(=O)c1cccc(-n2ccc(=O)c(COc3ccc4ncccc4c3)n2)c1` [Example 51, 3-{4-Oxo-3-[(quinolin-6-yloxy)methyl]pyridazin-1(4H)-yl}benzamide] was less than 100 nM.
For `Cn1cc(-n2ccc(=O)c(COc3ccc4ncc(N)cc4c3)n2)cn1` [Example 112, 3-{[(3-Aminoquinolin-6-yl)oxy]methyl}-1-(1-methyl-1H-pyrazol-4-yl)pyridazin-4(1H)-one], the IC50 was less than 100 nM.
For `COc1ccc2cc(OCc3nn(-c4cnn(C)c4)ccc3=O)ccc2n1` [Example 49, 3-{[(2-methoxyquinolin-6-yl)oxy]methyl}-1-(1-methyl-1H-pyrazol-4-yl)pyridazin-4(1H)-one] the value was 100 to 1000 nM; for `CCn1cc(-n2ccc(=O)c(COc3ccc4ncc(-c5ccncc5)cc4c3)n2)cn1` [Example 80, 1-(1-ethyl-1H-pyrazol-4-yl)-3-{[(3-pyridin-4-ylquinolin-6-yl)oxy]methyl}pyridazin-4(1H)-one], less than 100 nM.
For `CCOc1cnc2ccc(C(C)Oc3nn(-c4cnn(C)c4)ccc3=O)cc2c1` (single isomer, unassigned) [Example 142, 3-[1-(3-ethoxyquinolin-6-yl)ethoxy]-1-(1-methyl-1H-pyrazol-4-yl)pyridazin-4(1H)-one] the value was 1000 to 3000 nM.
For `CCn1cc(-n2ccc(=O)c(COc3ccc4ncc(-c5ccccc5C)cc4c3)n2)cn1` [Example 84, 1-(1-ethyl-1H-pyrazol-4-yl)-3-({[3-(2-methylphenyl)quinolin-6-yl]oxy}methyl)pyridazin-4(1H)-one] the value was less than 100 nM.
In the case of `Cn1cc(-n2ccc(=O)c(COc3ccc4ncc(OC(F)F)cc4c3)n2)cn1` [Example 66, 3-({[3-(difluoromethoxy)quinolin-6-yl]oxy}methyl)-1-(1-methyl-1H-pyrazol-4-yl)pyridazin-4(1H)-one], the IC50 was less than 100 nM.
For `CN(Cc1nn(-c2cnn(C)c2)ccc1=O)c1ccc2ncccc2c1` [Example 108, 1-(1-Methyl-1H-pyrazol-4-yl)-3-{[methyl(quinolin-6-yl)amino]methyl}pyridazin-4(1H)-one] the value was less than 100 nM; for `CCOC(=O)Nc1ccc(OCc2nn(-c3cnn(C)c3)ccc2=O)cc1` [Example 122, ethyl (4-{[1-(1-methyl-1H-pyrazol-4-yl)-4-oxo-1,4-dihydropyridazin-3-yl]methoxy}phenyl)carbamate], 100 to 1000 nM.
The value for `Cn1cc(-n2ccc(=O)c(NCc3ccc4ncccc4c3)n2)cn1` [Example 147, 1-(1-methyl-1H-pyrazol-4-yl)-3-[(quinolin-6-ylmethyl)amino]pyridazin-4(1H)-one] was 100 to 1000 nM.

A word on the IC50: it is the midpoint of a concentration-inhibition curve.
